Laboratory results taken from patent publication US10426817B2, “Treatment of age-related macular degeneration and other eye diseases with apolipoprotein mimetics” (MacRegen, Inc., priority 2017, dated 2019).

Columns and labels:
[1] = test system: geriatric macaques with naturally occurring age-related maculopathy; assay: Macaque study of age-related maculopathy: fellow-eye effects and tolerability; format: in vivo; details: 6 monthly intravitreal injections, all macaques
Method: (§1) The macaque study was conducted according to accepted guidelines.

[2] = test system: esterified cholesterol in the Bruch's membrane; assay: Filipin staining of esterified cholesterol in Bruch's membrane, macaque study; format: in vivo, Macaca fascicularis; details: eyes injected with L-4F vs placebo-injected eyes; 6 monthly intravitreal injections
Method: as §1
For staining with filipin, specimens were washed once with deionized water for 5 min and then treated with 70% ethanol for 45 min. After being washed with deionized water for 5 min, the specimens were treated with cholesterol esterase (8.12 units/mL) diluted in 0.1 M potassium phosphate buffer (PPB, pH 7.4) for 3.5 hr at 37° C. The specimens were then washed sequentially with PPB and with phosphate buffered saline (PBS) twice for 3 min, followed by a wash with cold (4° C.) PBS overnight. Filipin staining was then performed with 250 μg/mL filipin (Sigma-Aldrich Biochemie GmbH, Hamburg, Germany), diluted in N,N-dimethylformamide (Merck Millipore, Darmstadt, Germany), for 60 min at RT with light shielding. The specimens were then washed sequentially with PBS and deionized water, mounted with a mounting solution (Mowiol®, Carl Roth GmbH, Karlsruhe, Germany), covered with a glass cover slip, and examined using an inverted fluorescence microscope (DMI 6000 from Leica Microsystems, Wetzlar, Germany). Filipin fluorescence was observed using a UV filter set (λex/λem=350 nm/455 nm). […] Semiquantitative analysis of fluorescence intensity of filipin at three separate regions of the BrM was done on three different slides from the same eye (a total of 9 different regions from each eye).

[3] = test system: high-sensitivity C-reactive protein (hsCRP); details: cynomolgus monkey, in vivo
Method: The macaque study was conducted according to accepted guidelines. […] One eye per animal received 6 monthly injections of the same escalating dosages of L-4F or scrambled L-4F (total of 625 μg) in a 50 μL volume. The second eye per animal was not injected and was just observed.
Clinical laboratory tests including serology, hemograms and liver enzymes were conducted, and ophthalmic examinations were also performed, including fundus photographs, optical coherence tomography (OCT), intraocular pressure testing and blood sampling. After 7 months, all animals were sacrificed and eyes were immediately prepared for histology.
Circulating hsCRP, which is mainly produced in the liver, is a non-specific marker for systemic inflammation.

[4] = test system: complement factor D (CFD); assay: Immunohistochemistry of complement factor D, macaque study; format: in vivo, Macaca fascicularis; details: eyes injected with L-4F vs eyes injected with the scrambled peptide; 6 monthly intravitreal injections
Method: as §1
(§2) Assays for immunohistochemistry of the membrane attack complex (MAC, C5b-9) and complement factor D (CFD) were performed identically except for employment of monoclonal antibodies specific for each complement component. Specimens were treated with 10 μg/mL protease K (Sigma-Aldrich Biochemie GmbH, Hamburg, Germany) in PBS for antigen retrieval for 30 min at RT. Subsequently the sections were blocked with a solution of goat serum (5% goat serum, 0.3% Triton X-100 in PBS) for 60 min at RT. The specimens were then reacted with a first antibody against either C5b-9 (diluted 1:30 in PBS, mouse monoclonal antibody, Dako Deutschland GmbH, Hamburg, Germany) or complement factor D (diluted 1:200 in PBS, mouse monoclonal antibody, Santa Cruz Biotechnology, Dallas, Tex., USA) overnight at 4° C. […] Fluorescence microscopy was conducted using an inverted fluorescence microscope (DMI 6000 from Leica Microsystems, Wetzlar, Germany) and a filter set for λex/λem=470 nm/525 nm. For the semiquantitative analysis of fluorescence intensity of C5b-9, 3-5 different regions in one slide were analyzed for 3 different slides from each eye (a total of 9-15 different regions from each eye). For the semiquantitative analysis of fluorescence intensity of complement factor D, 3 distinct regions for each eye were evaluated.

[5] = test system: membrane attack complex (MAC, C5b-9); assay: Immunohistochemistry of membrane attack complex, macaque study; format: in vivo, Macaca fascicularis; details: eyes injected with L-4F vs eyes injected with the scrambled peptide; 6 monthly intravitreal injections
Method: as §1, §2

[6] = test system: neutral lipids in and on the Bruch's membrane; assay: Oil red O (ORO) staining of neutral lipids in Bruch's membrane, macaque study; format: in vivo, Macaca fascicularis; details: eyes injected with L-4F vs eyes injected with placebo (scrambled L-4F); 6 monthly intravitreal injections, total 625 μg; after 6 months
Method: as §1
For staining with oil red O (ORO), specimens were treated with a 0.3% oil red O (Sigma-Aldrich Biochemie GmbH, Hamburg, Germany) solution (in 99% isopropanol) for 30 min at room temperature (RT), followed by immersion in a 60% isopropanol solution for 12 min. After the specimens were washed with deionized water for 3 min, counter-staining was conducted with hematoxylin (Carl Roth GmbH, Karlsruhe, Germany). The specimens were then mounted with mounting solution (Aquatex from Merck Millipore, Darmstadt, Germany), covered with a glass cover slip (Menzel-Graeser GmbH), and examined using a fully automated inverted light microscope for life science (DMI 6000 from Leica Microsystems Wetzlar, Germany). Image analysis was performed by grading the intensity of ORO staining (red color) of the Bruch's membrane (BrM) with scores ranging from 0 to 4, according to a qualitative evaluation assessed in four different regions in two separate slices from each eye (a total of 8 different regions from each eye). Qualitative ORO staining scores at the BrM and the choroid: 0=no staining; 1=+; 2=++; 3=+++; 4=++++.

[7] = test system: Bruch's membrane; assay: Bruch's membrane thickness at the temporal outer macula by electron microscopy, macaque study; format: in vivo, Macaca fascicularis
Method: as §1
Lipid deposition in the Bruch's membrane contributes to thickening of the BrM. Bruch's membrane thickness was measured at the temporal outer macula of enucleated eyes examined by electron microscopy post-mortem.

[8] = in vivo; cited from earlier work
[9] = test system: geographic atrophy; details: monthly intravitreal injections of 10 mg for 18 months, cited from earlier work

Ac-DWFKAFYDKVAEKFKEAF-NH2 [L-4F, Ac-DWFKAFYDKVAEKFKEAF-NH2 acetate salt (SEQ. ID. NO. 13)]
tolerability (significant adverse event or side effect) [1]: well tolerated | reduction of esterified cholesterol in the BrM (filipin fluorescence, semiquantitative) [2]: about 68% | blood level of hsCRP [3]: did not increase | decreased level of complement factor D (fluorescence intensity, semiquantitative) [4]: about 41% | decreased level of MAC (C5b-9) in the BrM and the choriocapillaris (fluorescence intensity, semiquantitative) [5]: about 58% | reduction of lipid deposits from the BrM (oil red O staining) [6]: about 56% | reduction of BrM thickness ([7]; eyes injected with L-4F vs eyes injected with placebo): about 24% | BrM thickness at the temporal outer macula ([7]; injected eyes, electron microscopy post-mortem, mean ± SE): 1.31 μm

aflibercept: soluble fusion protein containing one or more extracellular domains of one or more VEGFRs; anti-VEGF agent
intravitreal half-life [8]: about 9.0 days

bevacizumab: anti-VEGF antibody or fragment thereof
intravitreal half-life [8]: about 9.8 days

lampalizumab: antigen-binding fragment (Fab) of a humanized monoclonal antibody targeting complement factor D (CFD)
reduction in the area of geographic atrophy in the injected eye ([9]; fundus autofluorescence, vs placebo): about 20% | reduction in the area of geographic atrophy, subgroup positive for the CFI biomarker [9]: about 44%

ranibizumab: anti-VEGF antibody or fragment thereof
intravitreal half-life [8]: about 7.1 days
